As usually defined, the melting point is the temperature, or range, at which the solid turns liquid.

The structures appear in SMILES notation.

Drawing on patent publication US7253202B2, “Substituted benzodioxepines” (Merck Patent GmbH, priority 2002, dated 2007), this text covers IC50 and melting point for six molecules.

Series [1] deals with T1, 5HT1A receptor (Rattus norvegicus, UniProt P19327).
T1 construct: from tissue; host or cells: rat brain (hippocampal) membranes
T1 sequence (P19327 1-422): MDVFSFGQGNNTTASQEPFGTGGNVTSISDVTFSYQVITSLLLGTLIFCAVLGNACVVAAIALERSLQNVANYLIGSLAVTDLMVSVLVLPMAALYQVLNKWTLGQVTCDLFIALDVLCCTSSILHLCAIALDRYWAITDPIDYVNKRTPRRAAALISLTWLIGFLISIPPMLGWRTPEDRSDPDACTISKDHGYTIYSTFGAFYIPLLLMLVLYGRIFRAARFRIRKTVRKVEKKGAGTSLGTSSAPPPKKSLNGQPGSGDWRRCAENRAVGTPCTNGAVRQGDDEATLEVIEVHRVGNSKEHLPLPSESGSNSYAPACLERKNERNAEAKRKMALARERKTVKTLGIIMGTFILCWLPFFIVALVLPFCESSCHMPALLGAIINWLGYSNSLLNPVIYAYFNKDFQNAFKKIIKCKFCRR
The series can be described thus: 5-HT1A (serotonin) binding test. To be noted: binding to the 5HT1A receptor; read-out: 5HT1A (IC50 in nmol/l). On the procedure: Binding properties of the compounds of the formula I can be determined, for example, by the 5-HT1A (serotonin) binding test (Matzen et al., J. Med. Chem., 43 (2000), 1149-1157, in particular page 1156 with reference to Eur. J. Pharmacol.: 140 (1987), 143-155).
The binding properties to the 5HT1A receptor was determined with the aid of the 5-HT1A (serotonin) binding test (Matzen et al., J. Med. Chem., 43 (2000), 1149-1157, in particular page 1156 with reference to Eur. J. Pharmacol.: 140 (1987), 143-155).

Series [2] has as its target T2, serotonin reuptake (Rattus norvegicus, UniProt P31652).
T2 construct: from tissue
Nature of the series: Serotonin reuptake inhibition by synaptosomal uptake inhibition (Wong et al.). In kind it is biochemical. To be noted: read-out: SSRI (IC50 in nmol/l). From the text: For ex-vivo detection of serotonin reuptake inhibition, use can be made, for example, of synaptosomal uptake inhibition (Wong et al., Neuropsychopharmacol. 8 (1993), 23-33) and p-chloroamphetamine antagonism (Fuller et al., J. Pharmacol. Exp. Ther. 212 (1980), 115-119).
The serotonin reuptake inhibition was investigated with the aid of synaptosomal uptake inhibition by the method of Wong et al. (Neuropsycho-pharmacol. 8 (1993), 23-33).

In series [3] the target is 5-HT4 receptor (UniProt O70528). The series can be described thus: 5-HT4 receptor binding test according to Grossman et al. To be noted: binding to the 5-HT4 receptor; read-out: 5HT4 (IC50 in nmol/l). From the text:
For determination of the binding properties of the compounds of the formula I to the 5-HT4 receptor, use can be made of the test according to Grossman et al. (Grossman et al., Br. J. Pharmacol. 109, (1993), 618-24).
In order to determine the binding properties to the 5-HT4 receptor, use was made of the test in accordance with Grossman et al. (Grossman et al., Br. J. Pharmacol. 109, (1993), 618-24).

T2 sequence (P31652 whole entry): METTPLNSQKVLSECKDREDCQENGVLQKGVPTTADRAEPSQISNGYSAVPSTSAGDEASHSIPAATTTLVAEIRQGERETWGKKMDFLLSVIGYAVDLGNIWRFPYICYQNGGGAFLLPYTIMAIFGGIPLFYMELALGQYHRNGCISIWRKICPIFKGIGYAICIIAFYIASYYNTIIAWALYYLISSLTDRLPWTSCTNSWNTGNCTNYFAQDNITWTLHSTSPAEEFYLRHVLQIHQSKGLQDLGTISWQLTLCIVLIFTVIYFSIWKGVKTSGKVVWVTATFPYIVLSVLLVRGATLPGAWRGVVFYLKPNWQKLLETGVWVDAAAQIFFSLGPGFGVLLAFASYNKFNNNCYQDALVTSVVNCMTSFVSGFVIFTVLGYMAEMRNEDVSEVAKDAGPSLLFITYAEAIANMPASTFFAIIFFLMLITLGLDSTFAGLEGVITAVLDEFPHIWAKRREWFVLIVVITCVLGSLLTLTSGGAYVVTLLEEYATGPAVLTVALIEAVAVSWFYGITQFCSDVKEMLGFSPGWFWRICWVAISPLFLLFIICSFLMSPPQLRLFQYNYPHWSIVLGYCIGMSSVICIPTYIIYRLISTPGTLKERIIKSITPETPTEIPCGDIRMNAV

With `Cc1cccc2c1OCC(NCCCCc1c[nH]c3ccc(C#N)cc13)CO2` (stereo not shown) [EMD 87319, 3-{4-(6-methyl-3,4-dihydro-2H-1,5-benzodioxepin-3-ylamino)butyl}indole-5-carbonitrile], the values for the IC50 in series [1] and in series [2] were 2 nmol/L and 3 nmol/L, respectively.
As for `N#Cc1ccc2[nH]cc(CCCCNC3COc4ccccc4OC3)c2c1` [EMD 76066, N-(3,4-dihydro-2H-1,5-benzodioxepin-3-yl)-4-(5-cyano-3-indole)butylamine], the melting point fell in the range of 166 to 168 °C. The IC50 in series [1] is 0.5 nmol/L. For the same molecule, the IC50 in series [2] came to 8 nmol/L.
As for `Cc1ccc2c(c1)OCC(NCCCCc1c[nH]c3ccc(C#N)cc13)CO2` (stereo not shown) [EMD 85350, 3-{4-[7-methyl-3,4-dihydro-2H-1,5-benzodioxepin-3-ylamino]butyl}indole-5-carbonitrile], the IC50 in series [1] is 3 nmol/L; in series [2], 4 nmol/L.
For the molecule `N#Cc1ccc2[nH]cc(CCCCNCC3CCOc4ccccc4O3)c2c1` (stereo not shown) (hydrate or solvate) [EMD 87322], the melting point was found to be 78 °C.
In the case of `COc1cccc2c1OCC(NCCCCc1c[nH]c3ccc(C#N)cc13)CO2` (stereo not shown) [EMD 87326, 3-[4-(6-methoxy-3,4-dihydro-2H-1,5-benzodioxepin-3-ylamino)butyl]indole-5-carbonitrile], the figures for the IC50 in series [1] and in series [2] were 0.6 nmol/L and 1 nmol/L, respectively.
As for `N#Cc1ccc2[nH]cc(CCCCNCC3CCOc4ccccc4O3)c2c1` (stereo not shown) [EMD 87322], the IC50 in series [1] was determined as 4 nmol/L; in series [3] it was 8.4 nmol/L; in series [2], 0.6 nmol/L.
